Measurements as given in patent US20190292559A1, “NUCLEOTIDE SEQUENCE FOR IMPROVING RESISTANCE AGAINST PLANT PATHOGENS” (CONSEJO SUPERIOR DE INVESTIGACIONES CIENTIFICAS (CSIS), priority 2016, published 2019).

How the values were obtained:
[1] = molecular target: T1, JAZ2 protein (Arabidopsis thaliana, UniProt O04197+Q9S7M2); assay: JAZ2 protein stability (35S JAZ2-GUS staining); assay type: cell-based; conditions: JAZ2-GUS transgenic seedlings, 3 h
T1 construct: expressed in transfected cells
T1 sequence (Q9S7M2 1-249): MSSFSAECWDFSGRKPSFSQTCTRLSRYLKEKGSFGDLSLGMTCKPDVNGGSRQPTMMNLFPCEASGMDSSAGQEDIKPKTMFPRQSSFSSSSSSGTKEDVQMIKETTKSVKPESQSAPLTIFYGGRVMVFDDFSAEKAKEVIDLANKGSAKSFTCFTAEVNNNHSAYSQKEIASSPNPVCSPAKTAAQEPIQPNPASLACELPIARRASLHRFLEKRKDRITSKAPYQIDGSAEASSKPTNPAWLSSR
T1 sequence (O04197 1-592): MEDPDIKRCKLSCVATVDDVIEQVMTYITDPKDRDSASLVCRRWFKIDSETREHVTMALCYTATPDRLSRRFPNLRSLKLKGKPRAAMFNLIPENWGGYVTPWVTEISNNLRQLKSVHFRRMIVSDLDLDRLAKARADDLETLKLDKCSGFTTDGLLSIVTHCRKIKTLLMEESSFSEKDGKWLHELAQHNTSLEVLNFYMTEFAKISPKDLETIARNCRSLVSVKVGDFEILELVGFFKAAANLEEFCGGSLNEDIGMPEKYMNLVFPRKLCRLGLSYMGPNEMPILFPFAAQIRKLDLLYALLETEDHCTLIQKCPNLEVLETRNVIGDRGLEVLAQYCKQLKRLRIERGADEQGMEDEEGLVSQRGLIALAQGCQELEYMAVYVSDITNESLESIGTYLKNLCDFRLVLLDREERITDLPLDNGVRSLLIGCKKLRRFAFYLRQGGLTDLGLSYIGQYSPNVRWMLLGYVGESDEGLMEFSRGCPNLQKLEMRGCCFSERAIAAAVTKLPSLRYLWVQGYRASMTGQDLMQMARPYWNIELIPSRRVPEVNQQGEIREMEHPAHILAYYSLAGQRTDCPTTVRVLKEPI
T1 sequence (Q39255 1-160 partner): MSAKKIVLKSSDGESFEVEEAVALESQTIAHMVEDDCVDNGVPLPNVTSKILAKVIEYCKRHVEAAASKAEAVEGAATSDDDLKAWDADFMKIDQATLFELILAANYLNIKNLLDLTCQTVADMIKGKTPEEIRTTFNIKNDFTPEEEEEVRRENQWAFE
Description: For JAZ promoter:GUS expression experiments, five to seven days-old seedlings were treated with mock solution or 50 μM JA for 2 h and GUS stained as previously described (Fernandez-Calvo, P. et al. Plant Cell. 2011; 23(2): 701-715). For JAZ2 protein stability experiments, seven to nine days-old seedlings were treated with mock solution or 50 nM COR for 3 h. Then, samples were placed in staining solution containing 50 mM phosphate buffer, pH 7, 0.1% (v/v) Triton X-100 (Sigma-Aldrich), 2 mM 5-bromo-4-chloro-3-indolyl b-D glucuronic acid (X-Gluc, Glycosynth), 1 mM potassium-ferrocyanide (Sigma-Aldrich), and 1 mM potassium-ferricyanide (Sigma-Aldrich) and incubated at 37° C. overnight. After staining, the tissue was soaked several times in 75% ethanol and kept in 5% glycerol until being photographed with a Leica DMR UV/VIS microscope.

[2] = system: stomata guard cells; assay: Stomatal aperture measurements (MAMP-induced closure, COR-induced reopening); assay type: cell-based, Arabidopsis; conditions: leaves incubated with MAMPs and 2 μM COR simultaneously
Description: Whole leaves from 4- to 6-week-old Arabidopsis plants were collected and exposed to white light for 1.30 hours while floating in a solution containing 50 mM KCl, 10 μm CaCl2, and 10 mm MES-KOH pH=6.1 (opening stomata buffer) with moderate shaking (50 rpm) to induce homogenous stomatal aperture among all Arabidopsis lines to compare. To do the MAMP-induced closure assays, the previous solution was removed and whole leaves were immersed in opening stomata buffer containing Pto DC3000 MAMP extracts at OD600=1,5 (7,5×10^8 cfu/ml), 2 μM of coronatine or a mock solution. Samples were further incubated under the same previous conditions for 4-5 hours. Then, leaves were rapidly peeled and abaxial epidermal peels were placed on cover slips and observed with a microscope (Leica DMR). Stomatal aperture (width/length) was measured using ImageJ software. Error bars represent standard error of the mean (SEM) (n=20). Stomatal experiments were repeated at least three independent times and representative results are shown.
We next analyzed the ability of JAZ2-3 to close stomata upon microbial perception and reopen it in the presence of COR. […] Typically, Pto DC3000 MAMPs were used at optical density at 600 nm OD600=1,5 (7,5×10^8 cfu/ml) for incubation with leaves (Stomatal Aperture Measurements) or Arabidopsis seedlings (Quantitative RT-PCR). […]

[3] = system: JAZ2 promoter; assay: pJAZ2:GUS promoter expression (GUS staining); assay type: cell-based, Arabidopsis; conditions: 50 μM JA, 2 h, young seedlings
Description: (§1) Transgenic Arabidopsis lines expressing pJAZ:GUS promoter fusions were obtained by cloning the corresponding pJAZ PCR products (pJAZ1 fw cacc[…] [SEQ ID NO: 29]; pJAZ1 rev […] [SEQ ID NO: 30]; pJAZ2 fw cacc[…] [SEQ ID NO: 31]; pJAZ2 rev […] [SEQ ID NO: 32]; pJAZ3 fw cacc[…] [SEQ ID NO: 33]; pJAZ3 rev […] [SEQ ID NO: 34]) into the pENTR™/D-TOPO® system (Invitrogen) and then transferring them to pGWB3. Agrobacterium strain GV3101, containing these constructs, was used to transform Col-0 plants by floral dipping (Clough, S. J. and Bent, A. F. Plant J. 1998, 16(6): 735-743). Several transgenic lines were checked for Kanamycin and Hygromycin resistance and lines carrying one insertion were driven to homozygosis and used for further analysis. pJAZ2:GUS in coi1-30 background was generated by crossing the corresponding parental single homozygous lines. Arabidopsis lines expressing pMYC3:GUS and pMYC4:GUS promoter fusions, were previously reported (Fernandez-Calvo, P. et al. Plant Cell. 2011, 23(2): 701-715). The lines JAZ2-3 (RIKEN_ 13-5433-1) and JAZ2ΔJas (GABI_169B06) were obtained from the Nottingham Arabidopsis Stock Centre. The line JAZ1ΔJas (SEQ ID NO: 61) was obtained from an Arabidopsis activation tagging population (Weigel, D. et al. Plant Physiol. 2000, 122(4): 1003-1013). […]

[4] = system: JAZ1 promoter; assay: pJAZ1:GUS promoter expression (GUS staining); assay type: cell-based, Arabidopsis; conditions: 50 μM JA, 2 h
Description: as §1

Row | SMILES | COR concentration inducing rapid degradation of JAZ2 protein at guard cells [1] | COR-induced stomata reopening [2] | JAZ2 expression (pJAZ2:GUS) after JA treatment [3] | JAZ1 expression (pJAZ1:GUS) after JA treatment [4]
1 | CC[C@H]1C=C(C(=O)N[C@@]2(C(=O)O)C[C@@H]2CC)[C@H]2CCC(=O)[C@H]2C1 [COR, coronatine] | ≤ 50 nM | triggered COR-induced stomata reopening in JAZ2-3 and WT plants, but not in coi1-30 | – | –
2 | CC/C=C\C[C@H]1C(=O)CC[C@@H]1CC(=O)O [JA, jasmonic acid] | – | – | induced it in roots and mesophyll cells of young seedlings | strongly induced JAZ1 in roots and mesophyll cells
